Test results as given in patent US6548634B1, “Synthetic peptides having FGF receptor affinity” (priority 1998, dated 2003).
Read-outs that look alike come from different tables or passages of the source. Where a SMILES comes first, the peptide text is derived from it. Where no end group is shown, it is not given here.

Tests used:
[1] = tested on: Swiss 3T3 fibroblasts; test: BrdU incorporation (mitogenesis) in Swiss 3T3 fibroblasts; format: cell-based; conditions: for mitogenic activity in Swiss 3T3: BrdU incorporation
Procedure: 6×Histidine-tagged Clone 19-jun protein (FIG. 1A) was expressed in bacteria and purified by metal affinity chromatography as described in Example 5. Assay of BrdU incorporation, a measure of entry of cells into S-phase and therefore of mitogenesis, was performed according to manufacturers instructions (Cell proliferation ELISA, BrdU, Cat. No. 1-647-229, Boehringer-Mannheim, Indianapolis, Ind.). Briefly, 1×10^4 Swiss 3T3 cells per well were plated on gelatin-coated 96-well microtiter plates in complete media (DMEM, 10% FCS, antibiotics), incubated 24 hours, and the media changed to quiescent media for an addition 24 hours (DMEM containing 0.5 mg/ml bovine serum albumin, 1 μg/ml insulin, 5 μg/ml transferrin, antibiotics). The cells were then treated with bFGF or Clone 19-jun protein at the indicated concentrations in the presence of 15 U/ml heparin. 18 hours later, BrdU was added, the cells incubated an additional 4 hours, and assayed as described. […] Heparin alone had no effect, nor did a control protein expressed and purified in the same manner in which the C19 sequence was deleted.

[2] = molecular target: T1, FGFR1c extracellular domain-IgG fusion protein (Homo sapiens, UniProt P11362); test: Eu-labeled FGFR-IgG displacement from immobilized phagemid; format: binding; conditions: phage-displayed peptide, FIG. 7, read-out: IC50, displacement of Europium-labeled FGFR-IgG by unlabeled FGFR-IgG
T1 construct: human FGFR Ic (residues 1-377); made in house
T1 sequence (P11362 22-377): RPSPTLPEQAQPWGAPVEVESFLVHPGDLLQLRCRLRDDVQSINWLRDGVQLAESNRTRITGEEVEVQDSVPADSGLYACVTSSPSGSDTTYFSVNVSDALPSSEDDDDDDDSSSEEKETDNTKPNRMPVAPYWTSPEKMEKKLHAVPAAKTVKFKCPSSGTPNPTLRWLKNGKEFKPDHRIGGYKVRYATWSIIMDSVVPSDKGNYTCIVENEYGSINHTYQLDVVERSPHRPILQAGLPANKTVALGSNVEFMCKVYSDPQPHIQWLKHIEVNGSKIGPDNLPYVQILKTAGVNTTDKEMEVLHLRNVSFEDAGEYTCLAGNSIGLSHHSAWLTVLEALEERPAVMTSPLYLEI
Procedure: The immobilization of phagemid using antibodies, followed by probing with selected ligand in an ELISA format has been reported previously (Valadon, P. & Scharff, M. D., 1996 J. Immunol. Methods 197, 171-179). We developed a more sensitive detection method using Europium chelate-conjugated target receptor.
Nunc Maxisorp 96-well plates were coated with […] anti-M13 antibody in […] 50 mM Na2CO3 pH 9.6 and blocked using the conditions described in Example 2. Phagemid (˜10^11 cfu) were applied to wells in binding buffer for 1 h and washed 6 times with PBS, 0.05% Tween 20, and 2 times with Delphia Wash Buffer (E&G Wallac). Serial dilutions of unlabeled FGFR-IgG were added along with a constant amount (500 pM−2.5 nM) of Europium-labeled FGFR-IgG in Delphia Assay Buffer (prepared according to instructions from E&G Wallac), and reactions allowed to incubate for 2 h. Wells were washed 8× in Delphia Wash Buffer, treated with 100 μL of Delphia Enhancer Solution and fluorescence measured. IC50 values were determined from four-parameter fits to displacement plots.

[3] = tested on: 293 cells expressing full-length FGFR1c; test: MAP kinase phosphorylation in 293 cells expressing FGFR1c; format: cell-based; conditions: 1.0 nM bFGF or 50 nM C19jun, 15 U/ml heparin, 15 minutes
Procedure: (§1) To determine whether C19jun could activate FGF receptors in vivo, Swiss 3T3 cells were treated with basic FGF (bFGF) or purified C19jun protein. Cell extracts were then immunoprecipitated with anti-FGFR antibodies, analyzed by SDS-PAGE and immunoblotted with anti-phosphotyrosine antibodies. Extracts from bFGF and C19jun-stimulated 293 cells expressing FGFR1c were also immunoblotted with phospho-MAP Kinase-specific antibodies.
(§2) Swiss 3T3 fibroblasts, or 293 cells expressing full-length FGFRIc were incubated in quiescing media (DMEM, 1 μg/ml insulin, 5 μg/ml transferrin, 0.5 mg/ml BSA) for 24-48 hrs, and then stimulated with 1.0 nM bFGF or 50 nM refolded C19jun protein in the presence of 15 U/ml heparin for 15 minutes at 37° C. The cells were lysed and aliquots of lysate containing equal amounts of total protein were either analyzed directly by immunoblotting with phospho-MAPKspecific antibodies and anti-total MAPK antisera (New England Biolabs) or immunoprecipitated with anti-FGFR antisera and immunoblotted with anti-phosphotyrosine antibodies (Upstate Biotechnology, Inc.). Both bFGF and C19jun induced FGFR autophosphorylation and MAP kinase phosphorylation.

[4] = tested on: FGFR; test: FGFR autophosphorylation in Swiss 3T3 cells (anti-FGFR IP, anti-phosphotyrosine blot); format: cell-based; conditions: 1.0 nM bFGF or 50 nM C19jun, 15 U/ml heparin, 15 minutes
Procedure: as §1, §2

[5] = tested on: PC12 cells; test: PC12 cell neurite outgrowth; format: cell-based; conditions: 1 nM bFGF or 2 nM C19-jun, 15 U/ml heparin, 4 days
Procedure: 1×10^4 PC12 cells per well were plated on mouse laminin-and-poly-L-lysine-coated 24-well plates in 1 ml of media (RPMI 1640, 10% horse serum, 5% FCS, antibiotics) and stimulated with 1 nM bFGF or 2 nM C19-jun protein in the presence of 15 U/ml heparin for 4 days.

[6] = tested on: L6 myoblast cell lines stably expressing FGFR1c; test: c-fos mRNA expression in L6 myoblasts stably expressing FGFR1c; format: cell-based
[7] = tested on: control L6 cells; test: c-fos mRNA expression in control L6 cells that do not express FGFR; format: cell-based
[8] = molecular target: T2, FGFR1c ECD (Homo sapiens, UniProt P11362); test: BIAcore real-time kinetic analysis on immobilized FGFR1c ECD; format: binding; conditions: absence of heparin
T2 construct: human FGFR Ic (residues 1-377); made in house
T2 sequence (P11362 22-377): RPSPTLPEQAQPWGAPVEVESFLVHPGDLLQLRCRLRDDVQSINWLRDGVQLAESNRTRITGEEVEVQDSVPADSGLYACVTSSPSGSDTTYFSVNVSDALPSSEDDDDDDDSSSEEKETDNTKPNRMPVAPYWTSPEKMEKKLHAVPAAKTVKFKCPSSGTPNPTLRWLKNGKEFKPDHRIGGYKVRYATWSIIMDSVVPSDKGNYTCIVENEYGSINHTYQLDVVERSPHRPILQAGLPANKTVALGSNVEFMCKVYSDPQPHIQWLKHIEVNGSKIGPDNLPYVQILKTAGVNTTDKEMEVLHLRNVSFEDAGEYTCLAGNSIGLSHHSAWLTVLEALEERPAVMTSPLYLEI
Procedure: Apparent affinities for immobilized FGFR1c ECD were determined using BIAcore real-time kinetic analysis in the absence of heparin.
Protein representing the linker segments and c-jun leucine zipper without the C19 sequence (FIG. 2) was expressed, purified, and characterized as for C19jun. C19 peptide with an intrapeptide disulfide bond was synthesized, purified by HPLC, and characterized by mass spectroscopy. C19junΔhep protein was prepared by changing human c-jun residues Arg276, Arg279, Lys285, and Lys288 in the leucine zipper domain to glutamines. Expression, purification, and characterization was as for C19jun. […] The extracellular ligand-binding domain of human FGFR Ic (residues 1-377) and human erythropoietin receptor (residues 1-250) were fused to the Fc region of human IgG1, expressed in baculovirus and purified by protein A affinity chromatography. […] PDGF receptor Fc fusion protein was from R&D Systems.

[9] = Binding to heparin agarose beads

Molecule: CC[C@H](C)[C@@H]1NC(=O)[C@H](CCCCN)NC(=O)[C@H]([C@@H](C)O)NC(=O)[C@H](Cc2c[nH]c3ccccc23)NC(=O)[C@H](C)NC(=O)[C@H](CO)NC(=O)[C@H](CC(=O)O)NC(=O)[C@H]([C@@H](C)O)NC(=O)[C@H](Cc2ccccc2)NC(=O)[C@H](C(C)C)NC(=O)[C@H](CC(C)C)NC(=O)[C@H](C(C)C)NC(=O)[C@@H](NC(=O)[C@H](Cc2ccc(O)cc2)NC(=O)[C@H](CC(=O)O)NC(=O)[C@H](CC(=O)O)NC(=O)CNC(=O)[C@H](CO)NC(=O)[C@H](CCC(=O)O)NC(=O)[C@H](C)N)CSSC[C@@H](C(=O)N[C@@H](CC(=O)O)C(=O)N[C@@H](Cc2c[nH]c3ccccc23)C(=O)N[C@@H](CO)C(=O)N[C@@H](Cc2c[nH]cn2)C(=O)N[C@@H](Cc2ccccc2)C(=O)N[C@@H](CCCNC(=N)N)C(=O)N[C@@H](CC(N)=O)C(=O)O)NC1=O [C19 synthetic peptide] (HELM PEPTIDE1{A.E.S.G.D.D.Y.C.V.L.V.F.T.D.S.A.W.T.K.I.C.D.W.S.H.F.R.N}$PEPTIDE1,PEPTIDE1,8:R3-21:R3$$$V2.0; N-terminus and C-terminus assumed)
- mitogenic activity in Swiss 3T3 [1]: did not induce mitogenesis even at high concentrations

Molecule: TLVCDTVLEGQWRVCNWE [F12 clone]
- IC50 [2]: ~12 nM

Molecule: bFGF: basic fibroblast growth factor, natural FGF receptor ligand used as comparator [reference compound]
- EC50 ([1]; Swiss 3T3, 15 U/ml heparin, FIG. 3, read-out: EC50 stimulation of mitogenesis (BrdU incorporation)): 0.14 nM
- MAP kinase phosphorylation [3]: induced
- FGFR autophosphorylation [4]: induced
- neurite outgrowth / PC12 cell differentiation [5]: appearance of neurite extensions
- c-fos mRNA expression in FGFR-expressing L6 cells [6]: stimulated c-fos mRNA expression
- c-fos mRNA expression in control L6 cells [7]: neither was active

Molecule: jun leucine zipper only: Protein representing the linker segments and c-jun leucine zipper without the C19 sequence (RIARLEEKVKTLKAQNSELASTANMLREQVAQLKQKVMN; not fully specified) [reference compound]
- mitogenic activity in Swiss 3T3 ([1]; listed as Deletion of the C19 sequence from the fusion protein): abrogated mitogenic activity
- mitogenic activity in Swiss 3T3 ([1]; listed as control protein): had no effect
- Kd ([8]; BIAcore, approximate, read-out: KD, apparent affinity for immobilized FGFR1c ECD): > 10 µM

B1: F12jun: F12 sequence fused to GGGS linker, c-jun leucine zipper flanked by cysteines, polyhistidine tag; SEQ ID NO:43 (protein)
chain: MATLVCDTVLEGQWRVCNWEGPGGGSGGGSGGGSGGGSGGGSRCGGRIARLEEKVKTLKAQNSELASTANMLREQVAQLKQKVMNGGCGGSGGHHHHHH
- EC50 ([1]; Swiss 3T3, 18 hrs, 15 U/ml heparin, FIG. 6, read-out: EC50 mitogenic activity (BrdU incorporation)): ~1.7 nM

B2: C19junΔhep: C19jun with c-jun residues Arg276, Arg279, Lys285, Lys288 in the leucine zipper changed to glutamines (protein)
chain: MAESGDDYCVLVFTDSAWTKICDWSHFRNGPGGGSGGGSGGGSGGGSGGGSRCGGQIAQLEEKVQTLQAQNSELASTANMLREQVAQLKQKVMNHGGCGGSGGHHHHHH
- heparin binding [9]: very low affinity for heparin
- mitogenic activity in Swiss 3T3 [1]: inactive
- binding to immobilized FGFR ECD ([8]; in vitro): same apparent affinity as C19jun
